The record followed here is the supplement of paper PMC11061612.

Assay [1] has as its system KELLY (Neuroblastoma). As to the kind of experiment: Bliss excess, mean over the matrix (fraction); higher = more synergy. In outline:
(§1)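 Cell lines in DMEM/F12 or RPMI with 10% FBS were plated in 1536-well plates, held 24 hours at 37°C, 5% CO2, then given two-drug dose matrices for 72 hours (DMSO typically 0.2%). Viability was read by CellTiter-Glo 2.0 luminescence and scaled as inhibition from 0 (vehicle wells) to 1 (blank wells). Combination Emax is the second-highest inhibition in the matrix; Bliss excess is observed combination effect minus expected EA + EB − EA·EB, EA and EB being single-agent effects.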

In assay [2] the test system is LNCaP-Clone-FGC (Prostate Carcinoma). Described as above. In outline: as §1
Assay [3] deals with LS-180 (Colorectal Carcinoma). Described as above. The gist of the method:
as §1

The subject of assay [4] is ME-1 (Acute Myeloid Leukemia). The description is as above. In outline:
as §1

For assay [5], the system named is RC-K8 (B-Cell Non-Hodgkin's Lymphoma). Described as above. The gist of the method:
as §1

Assay [6] deals with Ramos-2G6-4C10 (Burkitt's Lymphoma). Described as above. The gist of the method:
as §1

In assay [7] the test system is 42-MG-BA (Glioblastoma). In words: combination Emax (second highest fraction inhibited in the dose matrix, 72 h); higher = more inhibition; extreme values may be limits of the assay. In outline:
as §1

Assay [8] deals with AGS (Gastric Carcinoma). The assay is described as above. In outline: as §1
The subject of assay [9] is CAL-148 (Breast Carcinoma). The assay is described as above. The gist of the method: as §1
For assay [10], the system named is Calu-3 (Lung Adenocarcinoma). The description is as above. In outline:
as §1

Assay [11] deals with Daoy (Other Solid Carcinomas). The description is as above. The gist of the method: as §1
In assay [12] the test system is DoTc2-4510 (Cervical Carcinoma). The assay is described as above. The gist of the method: as §1
Assay [13] deals with HCC-78 (Lung Adenocarcinoma). The description is as above. In outline:
as §1

Assay [14] deals with HO-1-N-1 (Oral Cavity Carcinoma). The assay is described as above. The gist of the method:
as §1

Assay [15] deals with HuP-T4 (Pancreatic Carcinoma). Described as above. In outline: as §1
For assay [16], the system named is LNCaP-Clone-FGC (Prostate Carcinoma). Described as above. The gist of the method: as §1
In assay [17] the test system is MDA-MB-361 (Breast Carcinoma). The description is as above. The gist of the method:
as §1

Assay [18] has as its system NCI-H2085 (Non-Small Cell Lung Carcinoma). The description is as above. In outline: as §1
Assay [19] has as its system Ramos-2G6-4C10 (Burkitt's Lymphoma). The description is as above. The gist of the method:
as §1

Assay [20] concerns TE-9 (Esophageal Squamous Cell Carcinoma). The assay is described as above. In outline:
as §1
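For Bliss excess, mean over the matrix in this document: after 72 h of two-drug dosing.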

As to `CS(=O)(=O)CCNCc1ccc(-c2ccc3ncnc(Nc4ccc(OCc5cccc(F)c5)c(Cl)c4)c3c2)o1` [Lapatinib] + C[C@@H](Oc1cc(-c2cnn(C3CCNCC3)c2)cnc1N)c1c(Cl)ccc(F)c1Cl [Crizotinib] (first compound max 10 µM, 7x7, partner max 10 µM), the Bliss excess in [1] is -0.03; in assay [2], -0.0575; in [3], 0.0173; in [4], -0.0344; in [5], -0.0433; in assay [6], -0.113. In addition, the “combination Emax” value turned out to be 0.767 in assay [7]; 0.976 in assay [8]; 0.771 in [9]; 0.931 in assay [10]; 0.934 in [11]; 0.942 in [12]. In addition, the “combination Emax” value in assay [13] was found to be 0.882; in assay [14], 0.979; in assay [15], 0.915; in assay [16] it was 0.804; in assay [17], 0.859; in [18], 0.673. The “combination Emax” value in assay [19] came to 0.898; in assay [20], 0.552.

In the case of `CC(=O)c1c(C)c2cnc(Nc3ccc(N4CCNCC4)cn3)nc2n(C2CCCC2)c1=O` [Palbociclib] + CC1(C)CCC(CN2CCN(c3ccc(C(=O)NS(=O)(=O)c4ccc(NCC5CCOCC5)c([N+](=O)[O-])c4)c(Oc4cnc5[nH]ccc5c4)c3)CC2)=C(c2ccc(Cl)cc2)C1 [Venetoclax] (first compound max 10 µM, 7x7, partner max 1 µM), the Bliss excess in [1] was 0.0358; in assay [2], 0.0267; in assay [3] it was -0.0124; in assay [4], -0.0012; in assay [5] it was -0.0904; in [6] it was -0.106. For the same compound, the “combination Emax” value was found to be 0.27 in assay [7]; 0.356 in assay [8]; 0.161 in assay [9]; 0.0931 in assay [10]; 0.218 in assay [11]; 0.0297 in [12]. The “combination Emax” value in [13] was 0.144; in [14], 0.453; in [15], 0.163; in assay [16], 0.405; in [17], 0.163; in assay [18], 0.167. Moreover, the “combination Emax” value in assay [19] was 0.355; in [20], 0.114.

As for `CC(=O)c1c(C)c2cnc(Nc3ccc(N4CCNCC4)cn3)nc2n(C2CCCC2)c1=O` [Palbociclib] + Cc1c2c(nn1C)CSCc1cc(n(C)n1)CSc1cc(c3ccccc3c1)OCCCc1c(C(=O)O)n(C)c3c-2c(Cl)ccc13 [AZD5991] (first compound max 10 µM, 7x7, partner max 1 µM), the Bliss excess in assay [1] was 0.0123; in assay [2], 0.0049; in assay [3], -0.0515; in assay [4] it was -0.0141; in [5], -0.0555; in assay [6], -0.0226. Also, the “combination Emax” value in assay [7] turned out to be 0.391; in [8], 0.445; in assay [9] it was 0.376; in [10], 0.219; in [11] it was 0.21; in assay [12], 0.215. For the same compound, the “combination Emax” value in assay [13] amounted to 0.251; in assay [14], 0.597; in assay [15] it was 0.245; in assay [16], 0.5; in [17], 0.586; in assay [18] it was 0.167. Further, the “combination Emax” value in [19] was 0.986; in assay [20] it was 0.14.

`CC(=O)c1c(C)c2cnc(Nc3ccc(N4CCNCC4)cn3)nc2n(C2CCCC2)c1=O` [Palbociclib] + Cn1cnc2c(F)c(Nc3ccc(Br)cc3Cl)c(C(=O)NOCCO)cc21 [Selumetinib] (first compound max 10 µM, 7x7, partner max 10 µM): the Bliss excess was 0.09 in assay [1]; 0.0237 in assay [2]; 0.0098 in assay [3]; -0.0321 in assay [4]; -0.0203 in assay [5]; -0.023 in assay [6]. In addition, the “combination Emax” value in assay [7] came out at 0.232; in assay [8], 0.906; in assay [9], 0.303; in assay [10] it was 0.149; in [11], 0.18; in assay [12], 0.117. The “combination Emax” value in [13] was 0.168; in assay [14] it was 0.745; in [15], 0.349; in [16], 0.451; in assay [17], 0.154; in [18] it was 0.231. Moreover, the “combination Emax” value in [19] was determined as 0.336; in assay [20], 0.201.

`COc1cccc(OCCCN)c1-c1cc(Nc2cnc(C#N)cn2)n[nH]1` [Prexasertib] + CCc1c2c(nc3ccc(O)cc13)-c1cc3c(c(=O)n1C2)COC(=O)[C@]3(O)CC [SN-38] (first compound max 1 µM, 7x7, partner max 0.3 µM): the Bliss excess in assay [1] is -0.0098; in [2], -0.0782; in assay [3] it was -0.0629; in assay [4], 0.0086; in assay [5], -0.0506; in assay [6] it was 0.0754. Besides, the “combination Emax” value in assay [7] came to 1; in assay [8] it was 0.93; in [9], 0.935; in [10], 0.549; in [11] it was 0.999; in assay [12], 0.964. The “combination Emax” value in assay [13] stood at 0.947; in [14], 1; in assay [15], 0.938; in assay [16], 0.766; in assay [17], 0.913; in [18], 0.86. Besides, the “combination Emax” value in assay [19] was 1; in assay [20], 0.8.

For `C[C@@H](c1ccc2nccn2c1)n1nnc2ncc(-c3cnn(C)c3)nc21` [Savolitinib] + CC1(C)CCC(CN2CCN(c3ccc(C(=O)NS(=O)(=O)c4ccc(NCC5CCOCC5)c([N+](=O)[O-])c4)c(Oc4cnc5[nH]ccc5c4)c3)CC2)=C(c2ccc(Cl)cc2)C1 [Venetoclax] (first compound max 1 µM, 7x7, partner max 1 µM), the Bliss excess in assay [1] is -0.0038; in assay [2] it was -0.0593; in [3], -0.0201; in [4], -0.0192; in assay [5] it was -0.0489; in assay [6], -0.0183. The “combination Emax” value in [7] stood at 0.166; in [8] it was 0.0926; in [9], 0.143; in assay [10], 0.153; in assay [11], 0.152; in [12], 0.182. Moreover, the “combination Emax” value in [13] stood at 0.145; in assay [14], 0.158; in assay [15], 0.0793; in assay [16], 0.0523; in assay [17], 0.119; in assay [18] it was 0.107. Further, the results for the “combination Emax” value in [19] and in assay [20] were 0.169 and 0.152, respectively.

For `C[C@@H](c1ccc2nccn2c1)n1nnc2ncc(-c3cnn(C)c3)nc21` [Savolitinib] + Cc1c2c(nn1C)CSCc1cc(n(C)n1)CSc1cc(c3ccccc3c1)OCCCc1c(C(=O)O)n(C)c3c-2c(Cl)ccc13 [AZD5991] (first compound max 1 µM, 7x7, partner max 1 µM), the Bliss excess was -0.0138 in assay [1]; -0.0148 in [2]; -0.015 in [3]; -0.051 in assay [4]; -0.0257 in assay [5]; 0.0002 in assay [6]. Moreover, the “combination Emax” value in assay [7] was 0.192; in [8], 0.241; in assay [9], 0.275; in assay [10] it was 0.2; in assay [11], 0.126; in [12], 0.205. Besides, the “combination Emax” value in [13] is 0.18; in [14], 0.488; in [15], 0.265; in assay [16], 0.163; in [17] it was 0.735; in [18], 0.158. The “combination Emax” value in assay [19] stood at 0.975; in [20] it was 0.239.
